{"source": "patent US4146615A", "about": "“Chrysanthellum plant extract” (Laboratoires Sarget, priority 1977, dated 1979)", "key": {"[1]": {"tested_on": "edema of the rat ear induced by croton oil", "experiment": "Local anti-inflammatory action, edema of the rat ear induced by croton oil (Le Douarec)", "format": "in vivo", "settings": "topical", "protocol": "This was determined by the technique of edema of the rat ear induced by croton oil according to the method of Le Douarec. The irritant mixture was prepared from two solutions: solution A which contained 10 ml of pyridine, 2.5 ml of water and 12.5 ml of ethyl acetate and in which the test sample was dissolved; solution B, which contained 1 ml of croton oil and 24 ml of ethyl acetate. The two solutions A and B were mixed together before use. Edema was induced by swabbing the ear with a cotton wad moistened with the irritant mixture (about 1 ml of mixture per rat)."}, "[2]": {"tested_on": "male mice of the Swiss EOPS strain", "experiment": "Analgesic activity, P.B.Q. test (chemical stimulus)", "format": "in vivo, mouse", "settings": "10 minutes before P.B.Q., range in parentheses", "protocol": "Experiments were performed on male mice of the Swiss EOPS strain and two stress-producing stimuli were used: the P.B.Q. test (chemical stimulus) and the hot plate test (thermal stimulus).\nAn aqueous alcoholic solution of 0.02% phenyl p-benzoquinone (P.B.Q.) was administered i.p. to the animals; at the end of 5 minutes this induced abdominal contractions and extension of the mice's hind paws.\nThe doses are expressed in mg/kg of animal weight."}, "[3]": {"tested_on": "male mice of the Swiss EOPS strain", "experiment": "Analgesic activity, hot plate test (thermal stimulus)", "format": "in vivo, mouse", "settings": "56° C., reaction time ≥150% of reference time", "protocol": "Experiments were performed on male mice of the Swiss EOPS strain and two stress-producing stimuli were used: the P.B.Q. test (chemical stimulus) and the hot plate test (thermal stimulus). […] The doses are expressed in mg/kg of animal weight."}, "[4]": {"tested_on": "capillary resistance", "experiment": "Capillaroprotector effects, capillary resistance", "format": "in vivo, rat", "protocol": "The capillary resistance was determined by a variant of the method of Charlier R., Hosslet A., and Colot M., Arch. Inter. Physiol. Biochem., 71, 1-45 (1963) in Sprague Dowley EOPS rats. The products were administered i.p."}, "[5]": {"tested_on": "capillary permeability", "format": "in vivo, rat", "protocol": "The capillary permeability was determined by the method of […]., and […]., Arch. Inter. Physiol. […] The products were administered i.p. for capillary permeability, the ED 50 as well as the regression analysis equation expressing the effect on the capillary permeability as a function of the dose expressed in mg/kg."}, "[6]": {"tested_on": "EOPS mouse", "settings": "Mice", "protocol": "Acute toxicity was determined in the EOPS mouse, the standard Wistar rat and the EOPS Wistar rat for several methods of administration. The products were administered orally in suspension in gum julep, and i.p. and i.v. in a physiological solution neutralized with NaOH.\nIn all cases the doses are expressed in mg per kg of animal weight."}, "[7]": {"tested_on": "constraint ulcer", "experiment": "Anti-ulcer activity, constraint ulcer test (Bonfils)", "format": "in vivo, rat", "settings": "50 mg/kg PO", "protocol": "The anti-ulcer activity was determined in female EOPS Wistar rats in the constraint ulcer test by the technique of Bonfils.\nAfter 24 hours without food the rats, lightly anesthetized with ether, were immobilized in pliable metal-lattice corselets. The paws were tied together in pairs. The rats were suspended in their cages so that they could not touch any point of support. Just before anesthesia the test samples were administered PO in suspension in gum julep in a volume of 0.5 cc/100g. The animals were left constrained for 24 hours and then killed with ether. The stomachs were removed and cut along the greatest curvature. They were stretched out on cork slabs covered with glazed paper to facilitate examination and photographing. A scale of 0 to 4 was used for the number and dimension of ulcerations (0 for no ulceration, 4 for more than 4 ulcers or a perforation)."}, "[8]": {"tested_on": "EOPS Wistar rat", "experiment": "Acute toxicity in the EOPS Wistar rat (Litchfield and Wilcoxon)", "format": "in vivo", "settings": "EOPS Wistar rats, IP"}, "[9]": {"tested_on": "Edema from Carrageenan", "experiment": "Anti-inflammatory activity, edema test with carrageenan", "format": "in vivo, rat", "settings": "i.p.", "protocol": "This effect was determined in the edema test with carrageenan in male EOPS Wistar rats. A volume of 0.1 ml of a suspension of 0.5% carrageenan in physiologic serum was injected into the muscle bundle of the metatarsal region of the animal's hind paws. The test sample was administered i.p. in neutralized physiologic solution simultaneously with the carrageenan. The edema was measured by plethysmometry 2, 3 and 6 hours after the administration of carrageenan."}, "[10]": {"tested_on": "male standard Wistar rats", "experiment": "Intoxication by slow IV perfusion in the anesthetized rat", "protocol": "The carotid pressure, the heart rate, the respiration and the electrocardiogram were recorded on lead DII. […] The products were administered in solution in physiological serum. The solutions were neutralized with bicarbonate."}}, "note": "Read-outs that look alike come from different tables or passages of the source.", "data": [{"compound": "CC(=O)Oc1ccccc1C(=O)O", "note": "[Aspirin]", "values": [{"measurement": "% of Activity (inhibition of the edema)", "setting": "[1]; 25 mg/ml of mixture", "result": 27, "unit": "%"}, {"measurement": "% of Activity (inhibition of the edema)", "setting": "[1]; 50 mg/ml of mixture", "result": 65, "unit": "%"}]}, {"compound": "CCCCC1C(=O)N(c2ccccc2)N(c2ccccc2)C1=O", "note": "[Phenylbutazone]", "values": [{"measurement": "ED50", "setting": "[2]; Mus musculus, ip, read-out: P.B.Q. Test ED 50", "result": 14, "unit": "mg/kg"}, {"measurement": "ED50", "setting": "[3]; Mus musculus, ip, read-out: Hot Plate Test AD 50", "result": 125, "unit": "mg/kg"}]}, {"compound": "Sodium escinate", "values": [{"measurement": "Capillary Resistance activity", "setting": "[4]; dose 5 mg/kg i.p.", "result": "26 ± 15", "unit": "ucmHg/hour"}, {"measurement": "Capillary Resistance, % of animals with activity ≥25", "setting": "[4]; dose 5 mg/kg i.p.", "result": 60, "unit": "%"}, {"measurement": "Capillary Resistance activity", "setting": "[4]; dose 10 mg/kg i.p.", "result": "78 ± 24", "unit": "ucmHg/hour"}, {"measurement": "Capillary Resistance, % of animals with activity ≥25", "setting": "[4]; dose 10 mg/kg i.p.", "result": 100, "unit": "%"}, {"measurement": "Capillary Permeability ED 50", "setting": "[5]; i.p., standard Wistar rat, range in parentheses", "result": "12 (10-15) mg/kg"}, {"measurement": "Capillary permeability regression equation, constant term", "setting": "[5]; rat, not told", "result": 159}, {"measurement": "Capillary permeability regression equation, slope (coefficient of X)", "setting": "[5]; rat, not told", "result": -6.50}]}, {"compound": "β-aescine", "values": [{"measurement": "MTD (maximum tolerated dose)", "setting": "[6]; IP", "result": 2.5, "unit": "mg per kg"}, {"measurement": "MTD (maximum tolerated dose)", "setting": "[6]; IV", "result": "< 1.25", "unit": "mg per kg"}, {"measurement": "P.B.Q. Test ED 50", "setting": "[2]; i.p.", "result": "2.7 (1.7-7.5) mg/kg"}, {"measurement": "% of Anti-Ulcer Activity", "setting": "[7]", "result": 13, "unit": "%"}, {"measurement": "Hot Plate Test AD 50", "setting": "[3]; i.p.", "result": 4.5, "unit": "mg/kg"}, {"measurement": "MTD (maximum tolerated dose)", "setting": "[8]", "result": "< 6.25", "unit": "mg per kg"}, {"measurement": "Edema from Carrageenan ED 50", "setting": "[9]; 2 hours after carrageenan", "result": 6.5, "unit": "mg/kg"}, {"measurement": "Edema from Carrageenan ED 50", "setting": "[9]; 3 hours after carrageenan", "result": 8.5, "unit": "mg/kg"}, {"measurement": "Edema from Carrageenan ED 50", "setting": "[9]; 6 hours after carrageenan", "result": 7.5, "unit": "mg/kg"}, {"measurement": "arterial pressure", "setting": "[10]; 1 mg/kg/min", "result": "a slight hypotension was observed at the beginning of the perfusion; the arterial pressure next increased, then abruptly dropped to end rapidly in death"}, {"measurement": "arterial pressure and heart and respiratory rates", "setting": "[10]; up to 0.1 mg/kg/min", "result": "tended to increase"}]}]}
